Data on three compounds can be found in BindingDB's records for doi:10.1021/jm980294n (University of Utah, 1998).

Assay [1] in a line: Inhibition of insulin receptor mediated mitogenesis of NIH3T3 cells.
Assay [2] is described as follows: Inhibition of Epidermal growth factor receptor mediated mitogenesis of NIH3T3 cells.

For the compound `COc1ccc(Cc2nc(NC3=NC(=O)N(C)C3=O)n(C)c2Cc2ccc(O)cc2)cc1` [4-(5-(4-hydroxybenzyl)-4-(4-methoxybenzyl)-1-methyl-1H-imidazol-2-ylamino)-1-methyl-1H-imidazole-2,5-dione], the IC50 in assay [1] was 242 µM; in assay [2], 11.3 µM.

Regarding `COc1ccc(Cc2cn(Cc3ccc(OC)cc3)c(NC3=NC(=O)N(C)C3=O)n2)cc1` [5-[1,4-Bis-(4-methoxy-benzyl)-1H-imidazol-2-ylamino]-3-methyl-imidazole-2,4-dione], the IC50 in assay [1] came to 6.7 µM; in assay [2], 36.9 µM.

With `COc1ccc(Cc2cn(Cc3ccc(O)cc3)c(NC3=NC(=O)N(C)C3=O)n2)cc1` [5-[1-(4-Hydroxy-benzyl)-4-(4-methoxy-benzyl)-1H-imidazol-2-ylamino]-3-methyl-imidazole-2,4-dione], the IC50 was 9.8 µM in assay [1] and 22.7 µM in assay [2].

For orientation: IC50 means the point on the concentration scale where inhibition reaches its midpoint. Lower therefore signals greater potency.
